From patent US6403631B1, “Method and compositions for enhancing pregnancy success in an animal” (Equitech Laboratories, Inc., priority 1995, dated 2002)

How the values were obtained:
[1] = tested on: conceptus membrane segments; assay: In vitro estradiol production by day 16 conceptus membrane segments (Example 7); format: cell-based, mares
Description: Treatment with melatonin at estrus results in greater in vitro estradiol biosynthetic capability of day 16 conceptus membrane segments given androgen precursors. […] The extra-embryonic membranes were dissected into 4×4 mm^2 segments and cultured in the presence or absence of supplemental testosterone. Conceptus membrane fragments were cultured for 24 hours and the culture medium analyzed for estradiol.
Results and conclusions. Following completion of culture, conceptus membrane segments were frozen and assayed for DNA content. All estradiol concentrations measured in culture media were then adjusted for the DNA content of the appropriate conceptus membrane segment.

marmoset corpus luteum = conditions: in vivo perfusion, marmosets; cited from earlier work
pony mares = assay: Bolus melatonin at estrus: plasma E2, P4, LH and cycle length (Example 1A); format: in vivo
Description: A. Effect of bolus administration of melatonin on estradiol, progesterone, and luteinizing hormone levels. The effect of bolus melatonin administration during estrus on plasma estradiol (E2), progesterone (P4), and luteinizing hormone (LH) was determined. The interval from treatment to ovulation (OV1) and duration of the subsequent estrous cycle, ending at OV2, were also measured. Estrous cycles of eight pony mares were synchronized. Ovarian follicular activity was monitored daily, and sexual behavior was monitored with a stallion. Blood samples were collected daily. Upon detection of behavioral estrus and a 30 mm diameter follicle, mares were assigned to either a control group or melatonin group. Blood samples were collected for 8 hours (09:00 to 17:00) at 30 minute intervals. Melatonin-group mares were given an injection of 100 μg melatonin in 1 ml of sterile saline into the jugular vein, while control-group mares received 1 ml sterile saline.

mares [2] = assay: Bolus melatonin at estrus: conception, plasma progesterone and conceptus diameter (Example 1B); format: in vivo; conditions: 100 μg at estrus
Description: B. Effect on conception of bolus administration of melatonin during estrus. […] Pregnancy was monitored by ultrasonography after day 10 post-ovulation. Blood samples were collected daily from the day of treatment to day 16 post-ovulation, when conceptuses were removed. Conceptus diameter was measured daily beginning day 10 post-ovulation with ultrasound.

hysterectomized mares = assay: Melatonin at estrus, morning v. afternoon, in hysterectomized mares: plasma progesterone (Example 5); format: in vivo
Description: Because hysterectomized mares are unable to generate a luteolytic secretion of prostaglandin F2α (PGF), luteal function and progesterone production continue longer than in uterine-intact mares.
The experiment was repeated in full using the same design with the exception that melatonin or control injections were administered in the afternoon rather than the morning. Blood samples were collected daily from day of treatment for 30 days post-ovulation.

sheep = conditions: subcutaneous, multiple daily administrations; cited from earlier work
ewes [3] = conditions: orally administered to ewes; cited from earlier work
accessory corpora lutea = assay: Multiple melatonin administrations: accessory corpora lutea progesterone (Example 6); format: in vivo, mares; conditions: treatment just prior to formation of accessory corpora lutea (day 35-45 of pregnancy)
Source text: Mares are unique in that they develop and ovulate a new cohort of follicles around day 35-45 of pregnancy. […] Mares which received melatonin treatment at estrus also received daily melatonin treatment from day +35 to day +45 of pregnancy.

mares [4] = assay: Melatonin at mid-diestrus: plasma progesterone (Example 4); format: in vivo; conditions: 100 μg on day 8 post-ovulation
Description: Treatments were given at 10:59:45. Daily blood sampling was performed from estrus preceding treatment to 7 days after the next subsequent ovulation. Blood samples were collected every 30 minutes for 10 hours each day of sampling.

cyclic pony mares [5] = assay: Melatonin at proestrus: plasma melatonin (RIA), E2, P4, LH (Example 2); conditions: 100 μg at proestrus
Description: Treatments were administered at 09:59:45 at proestrus only. Test animals were divided into two groups: control (1.0 ml 0.9% saline, n=3), and melatonin (100 μg melatonin in 1.0 ml 0.9% saline, n=3). Ovarian follicular activity was monitored daily by rectal palpation and/or ultrasonography. Blood samples were collected every 10 minutes for a period of 8 hours at proestrus, estrus, and diestrus. Plasma melatonin concentrations were measured by radioimmunoassay (RIA) to determine the effect of control and melatonin treatments administered at proestrus.

[6] = tested on: human and bovine granulosa cells; conditions: in vitro; cited from earlier work
corpus luteum = assay: Corpus luteum biopsy morphology after melatonin at estrus (Example 9); format: in vivo, mares; conditions: light and electron microscopy
Source text: Following collection of conceptuses as described in Examples 7 and 8, mares were taken to surgery and the corpus luteum biopsied. Biopsies were taken from each mare, control and melatonin-treated, for both light and electron microscopy.

[7] = tested on: corpora lutea segments from cycling mares; assay: In vitro progesterone production by corpus luteum segments (Example 8); format: cell-based; conditions: 1, 10 or 100 nM melatonin; presence or absence of 100 ng hCG
Description: Corpus luteum tissue was collected surgically and was dissected into segments approximately 2×2 mm^2. Segments were incubated in the following manner: [table] At completion of culture, segments were frozen until assayed for DNA content. All media progesterone concentrations were subsequently adjusted for DNA content of the appropriate segment.

cows = assay: Melatonin in cows: plasma progesterone (FIG. 5A); format: in vivo; conditions: vs saline control, initial results
Source text: FIGS. 5A and 5B show the effect on plasma progesterone (P4) concentration (ng/ml), compared to a saline control, following administration of melatonin to cows and ewes in accordance with the subject invention.

ewes [8] = assay: Bolus melatonin at estrus in ewes: plasma progesterone (Example 12); format: in vivo; conditions: 400 μg i.v., 2 to 3 doses at estrus; Day 5 to Day 15 post-estrus; vs saline
Description: A. Effect of bolus administration of melatonin on progesterone levels. The effect of bolus melatonin administration during estrus on plasma progesterone was determined. The duration of the estrous cycle was also measured. Estrous cycles of ten ewes were monitored by daily behavioral monitoring with a vasectomized ram. […] Blood samples were collected daily for an entire estrous cycle. Melatonin-treated ewes (n=5) were administered 400 μg melatonin i.v. in the early morning (07:30 to 08:30hr) and late afternoon (16:30 to 17:30hr). Five ewes were treated similarly, but were administered saline as control at the same times. Estrus duration was approximately 24 to 36 hr, thus ewes were administered 2 to 3 doses of melatonin to assure treatment during estrus. Progesterone levels were higher from Day 5 to Day 15 post-estrus in melatonin-treated ewes compared with saline-treated ewes. The increased progesterone concentrations following administration of melatonin, as compared to a saline control, is shown in FIG. 5B.

cyclic pony mares [9] = assay: Melatonin at proestrus or estrus: plasma hormones in the subsequent cycle (Example 3); format: in vivo
Description: Blood samples were collected every 30 minutes and were collected daily through the next subsequent estrus and ovulation.

[10] = 100 μg i.v. at estrus, vs control

Q: Which “estradiol production by conceptuses in vitro” value ([1]; testosterone supplied to the culture) does the source give for `C[C@]12CC[C@H]3[C@@H](CCC4=CC(=O)CC[C@@]43C)[C@@H]1CC[C@@H]2O` [Testosterone, testosterone] here?
A: significantly increased

Q: For `COc1ccc2[nH]cc(CCNC(C)=O)c2c1` [melatonin, N-acetyl-5-methoxytryptamine], which “progesterone production by corpus luteum” value (marmoset corpus luteum) is on record?
A: stimulated

Q: What about the “pattern of E2 over the cycle” value (pony mares; 100 μg i.v. at estrus, control pattern cubic, increases at OV1 and OV2) of the same compound?
A: quadratic, with increases noted only at OV2

Q: And the “plasma P4 levels vs control” value (pony mares; 100 μg i.v. at estrus, p<0.007)?
A: higher

Q: What about the “duration of subsequent estrous cycle (OV1 to OV2)” value (pony mares; [10]) of the same compound?
A: did not differ between groups

Q: What about the “interval from treatment to OV1” value (pony mares; [10]) of the same compound?
A: did not differ between groups

Q: And the “plasma LH levels” value (pony mares; [10])?
A: not different between groups

Q: What about the “plasma E2 secretion following administration” value (pony mares; 100 μg melatonin i.v. at estrus, 8 h sampling, p<0.001) of the same compound?
A: declined

Q: And the plasma progesterone concentrations (mares [2]; bred mares, to day 16 post-ovulation, p=0.026 vs control)?
A: increased

Q: What about the conceptus diameter (mares [2]; day 13 to 15 post-ovulation, vs control) of the same compound?
A: larger

Q: And the “early embryonic growth rate” value (mares [2]; days 10 to 13 post-ovulation, ultrasound)?
A: did not appear to differ

Q: What about the plasma progesterone concentrations (hysterectomized mares; 100 μg at estrus, morning or afternoon, p<0.03 vs control) of the same compound?
A: higher

Q: What about the “plasma progesterone, melatonin-treated vs saline-treated mares” value (hysterectomized mares; at approximate time of luteal regression (day 14 to 16)) of the same compound?
A: no longer detectable differences

Q: What about the progesterone concentrations (sheep) of the same compound?
A: increased

Q: And the plasma progesterone concentrations (ewes [3])?
A: increased

Q: And the “progesterone production by accessory corpora lutea” value (accessory corpora lutea)?
A: enhanced progesterone production

Q: And the “plasma progesterone concentrations during 10-hour sampling period” value (mares [4])?
A: did not alter

Q: What about the “plasma progesterone concentrations throughout rest of luteal phase” value (mares [4]) of the same compound?
A: Nor were plasma progesterone concentrations different

Q: What about the “plasma progesterone concentrations following next subsequent ovulation” value (mares [4]; until day 7 post-ovulation, p=0.034) of the same compound?
A: higher

Q: And the “plasma LH concentrations” value (cyclic pony mares [5]; 8-hour proestrus sampling, vs control)?
A: not different

Q: What about the “plasma melatonin concentrations vs control” value (cyclic pony mares [5]; by 3 hours post-treatment) of the same compound?
A: not different

Q: What about the “plasma estradiol concentrations over 8-hour sampling at proestrus” value (cyclic pony mares [5]; no change in controls) of the same compound?
A: decreased following treatment

Q: And the “mean plasma progesterone (P4) concentrations” value (cyclic pony mares [5]; sampled at diestrus, p=0.001 vs control)?
A: significantly higher

Q: And the “mean plasma estradiol concentrations” value (cyclic pony mares [5]; sampled at estrus, p=0.006 vs control)?
A: lower

Q: And the “mean plasma estradiol concentrations” value (cyclic pony mares [5]; sampled at proestrus or diestrus, vs control)?
A: not different

Q: And the “mean plasma progesterone (P4) concentrations” value (cyclic pony mares [5]; sampled at proestrus or estrus, vs control)?
A: not different

Q: What about the “plasma melatonin concentrations after administration” value (cyclic pony mares [5]; vs control, p=0.0001, RIA) of the same compound?
A: higher

Q: What about the production of progesterone [6] of the same compound?
A: enhanced

Q: What about the “estradiol concentrations in culture media, adjusted for DNA content” value ([1]; conceptuses from mares treated at estrus, no supplemental testosterone, 24 hours culture) of the same compound?
A: did not differ

Q: What about the “estradiol production in vitro, adjusted for DNA content” value ([1]; conceptuses from mares treated at estrus, with testosterone, p=0.01 vs all other groups) of the same compound?
A: greater

Q: And the corpus luteum morphology (corpus luteum)?
A: greater percent of cells with pleomorphic nuclei

Q: And the “media progesterone concentrations, adjusted for DNA content” value [7]?
A: no effect

Q: What about the “plasma progesterone (P4) concentrations” value (cows) of the same compound?
A: no effect

Q: What about the progesterone levels (ewes [8]) of the same compound?
A: higher

Q: And the “plasma estradiol concentrations at time of treatment” value (cyclic pony mares [9]; 100 μg at estrus)?
A: acute decline

Q: What about the “estradiol concentrations during subsequent estrous cycle” value (cyclic pony mares [9]; 100 μg at proestrus or estrus, p=0.001 vs control) of the same compound?
A: different

Q: What about the “plasma progesterone response, ovulation through next ovulation” value (cyclic pony mares [9]; 100 μg at proestrus or estrus, p=0.007 vs control) of the same compound?
A: higher

Q: And the “plasma LH concentrations” value (cyclic pony mares [9]; 100 μg at proestrus or estrus, vs controls)?
A: did not differ

Q: And the “treatment at proestrus compared with treatment at estrus” value (cyclic pony mares [9]; 100 μg melatonin)?
A: not different

Q: And the “plasma progesterone, standardized analysis” value (cyclic pony mares [9]; ovulation to day 7 and backwards from next ovulation, p=0.01 vs control)?
A: higher
